What all share (test): relative viability (nuclei count vs DMSO), 5 days (fraction); higher = more cells survive
Compound in the test “IMD-0354 + Palbociclib”: O=C(Nc1cc(C(F)(F)F)cc(C(F)(F)F)c1)c1cc(Cl)ccc1O [IMD-0354] + CC(=O)c1c(C)c2cnc(Nc3ccc(N4CCNCC4)cn3)nc2n(C2CCCC2)c1=O [Palbociclib] (partner 0.5 µM)
The gist of the method: (§1)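 Relative viability divides the nuclei count in treated wells by that in vehicle wells. Lung cancer cell lines were seeded in 1536-well plates, dosed by pin tool the next day, and fixed and stained after 5 days in one step with final 0.05% Triton X-100, 1% formaldehyde and 1 ug/ml Hoechst. Dosing was a single drug or a fixed anchor-drug dose plus five library-drug doses (not always all listed) in √10 steps, and values are medians of duplicate plates imaged at 4×.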

Compound in the test “IMD-0354 + Phenformin”: O=C(Nc1cc(C(F)(F)F)cc(C(F)(F)F)c1)c1cc(Cl)ccc1O [IMD-0354] + N=C(N)NC(=N)NCCc1ccccc1 [Phenformin] (partner 250 µM)
The gist of the method: as §1

Compound in the test “IMD-0354 + Tozasertib”: O=C(Nc1cc(C(F)(F)F)cc(C(F)(F)F)c1)c1cc(Cl)ccc1O [IMD-0354] + Cc1cc(Nc2cc(N3CCN(C)CC3)nc(Sc3ccc(NC(=O)C4CC4)cc3)n2)n[nH]1 [Tozasertib] (partner 0.1 µM)
Put shortly:
as §1

Compound in the test “IMD-0354 + Alpelisib”: O=C(Nc1cc(C(F)(F)F)cc(C(F)(F)F)c1)c1cc(Cl)ccc1O [IMD-0354] + Cc1nc(NC(=O)N2CCC[C@H]2C(N)=O)sc1-c1ccnc(C(C)(C)C(F)(F)F)c1 [Alpelisib] (partner 2 µM)
The gist of the method:
as §1

With NCI-H2405, the relative viability stood at 0.594 with IMD-0354 + Palbociclib (first compound 0.04 µM); 0.509 with IMD-0354 + Palbociclib (first compound 0.1265 µM); 0.457 in the test with IMD-0354 + Palbociclib (first compound 0.4 µM); 0.282 with IMD-0354 + Palbociclib (first compound 1.265 µM); 0.261 with IMD-0354 + Palbociclib (first compound 4 µM); 0.445 with IMD-0354 + Phenformin (first compound 0.04 µM). For the same cell line, the relative viability is 0.398 with IMD-0354 + Phenformin (first compound 0.1265 µM); 0.286 with IMD-0354 + Phenformin (first compound 0.4 µM); 0.245 with IMD-0354 + Phenformin (first compound 1.265 µM); 0.166 in the test with IMD-0354 + Phenformin (first compound 4 µM); 0.742 in the test with IMD-0354 + Tozasertib (first compound 0.04 µM); 0.727 with IMD-0354 + Tozasertib (first compound 0.1265 µM). Besides, the relative viability is 0.732 in the test with IMD-0354 + Tozasertib (first compound 0.4 µM); 0.346 with IMD-0354 + Tozasertib (first compound 1.265 µM); 0.322 with IMD-0354 + Tozasertib (first compound 4 µM); 0.961 with IMD-0354 + Alpelisib (first compound 0.04 µM); 0.835 with IMD-0354 + Alpelisib (first compound 0.1265 µM); 0.609 in the test with IMD-0354 + Alpelisib (first compound 0.4 µM). The relative viability with IMD-0354 + Alpelisib (first compound 1.265 µM) amounted to 0.306; in the test with IMD-0354 + Alpelisib (first compound 4 µM) it was 0.163.

As to NCI-H3122, the relative viability with IMD-0354 + Palbociclib (first compound 0.04 µM) stood at 0.18; with IMD-0354 + Palbociclib (first compound 0.1265 µM) it was 0.185; in the test with IMD-0354 + Palbociclib (first compound 0.4 µM), 0.213; in the test with IMD-0354 + Palbociclib (first compound 1.265 µM), 0.163; in the test with IMD-0354 + Palbociclib (first compound 4 µM), 0.135; with IMD-0354 + Phenformin (first compound 0.04 µM), 0.401. Also, the relative viability is 0.339 in the test with IMD-0354 + Phenformin (first compound 0.1265 µM); 0.136 in the test with IMD-0354 + Phenformin (first compound 0.4 µM); 0.064 with IMD-0354 + Phenformin (first compound 1.265 µM); 0.0975 with IMD-0354 + Phenformin (first compound 4 µM); 0.468 in the test with IMD-0354 + Tozasertib (first compound 0.04 µM); 0.421 with IMD-0354 + Tozasertib (first compound 0.1265 µM). Also, the relative viability with IMD-0354 + Tozasertib (first compound 0.4 µM) is 0.248; with IMD-0354 + Tozasertib (first compound 1.265 µM), 0.139; with IMD-0354 + Tozasertib (first compound 4 µM) it was 0.119; with IMD-0354 + Alpelisib (first compound 0.04 µM) it was 0.845; with IMD-0354 + Alpelisib (first compound 0.1265 µM), 0.917; with IMD-0354 + Alpelisib (first compound 0.4 µM), 0.365. The relative viability with IMD-0354 + Alpelisib (first compound 1.265 µM) is 0.271; with IMD-0354 + Alpelisib (first compound 4 µM) it was 0.163.

Regarding PC-3 [JPC-3], the relative viability with IMD-0354 + Palbociclib (first compound 0.04 µM) came out at 0.633; with IMD-0354 + Palbociclib (first compound 0.1265 µM) it was 0.578; with IMD-0354 + Palbociclib (first compound 0.4 µM), 0.496; with IMD-0354 + Palbociclib (first compound 1.265 µM) it was 0.363; in the test with IMD-0354 + Palbociclib (first compound 4 µM), 0.282; with IMD-0354 + Phenformin (first compound 0.04 µM) it was 0.508. Besides, the relative viability with IMD-0354 + Phenformin (first compound 0.1265 µM) worked out at 0.449; with IMD-0354 + Phenformin (first compound 0.4 µM), 0.459; with IMD-0354 + Phenformin (first compound 1.265 µM) it was 0.264; with IMD-0354 + Phenformin (first compound 4 µM), 0.291; with IMD-0354 + Tozasertib (first compound 0.04 µM), 1; with IMD-0354 + Tozasertib (first compound 0.1265 µM), 0.707. Besides, the relative viability in the test with IMD-0354 + Tozasertib (first compound 0.4 µM) worked out at 0.572; in the test with IMD-0354 + Tozasertib (first compound 1.265 µM), 0.567; in the test with IMD-0354 + Tozasertib (first compound 4 µM), 0.312; with IMD-0354 + Alpelisib (first compound 0.04 µM), 1.1; with IMD-0354 + Alpelisib (first compound 0.1265 µM) it was 1.04; with IMD-0354 + Alpelisib (first compound 0.4 µM), 0.714. In addition, the relative viability with IMD-0354 + Alpelisib (first compound 1.265 µM) is 0.774; with IMD-0354 + Alpelisib (first compound 4 µM), 0.183.

As to PC-14, the relative viability was 0.574 with IMD-0354 + Palbociclib (first compound 0.04 µM); 0.533 with IMD-0354 + Palbociclib (first compound 0.1265 µM); 0.317 with IMD-0354 + Palbociclib (first compound 0.4 µM); 0.129 in the test with IMD-0354 + Palbociclib (first compound 1.265 µM); 0.189 with IMD-0354 + Palbociclib (first compound 4 µM); 0.817 in the test with IMD-0354 + Phenformin (first compound 0.04 µM). The relative viability was determined as 0.59 with IMD-0354 + Phenformin (first compound 0.1265 µM); 0.221 with IMD-0354 + Phenformin (first compound 0.4 µM); 0.107 with IMD-0354 + Phenformin (first compound 1.265 µM); 0.112 with IMD-0354 + Phenformin (first compound 4 µM); 0.675 in the test with IMD-0354 + Tozasertib (first compound 0.04 µM); 0.61 in the test with IMD-0354 + Tozasertib (first compound 0.1265 µM). Moreover, the relative viability is 0.353 with IMD-0354 + Tozasertib (first compound 0.4 µM); 0.312 with IMD-0354 + Tozasertib (first compound 1.265 µM); 0.076 in the test with IMD-0354 + Tozasertib (first compound 4 µM); 1.13 with IMD-0354 + Alpelisib (first compound 0.04 µM); 0.681 with IMD-0354 + Alpelisib (first compound 0.1265 µM); 0.587 with IMD-0354 + Alpelisib (first compound 0.4 µM). Moreover, the relative viability with IMD-0354 + Alpelisib (first compound 1.265 µM) came out at 0.525; with IMD-0354 + Alpelisib (first compound 4 µM) it was 0.219.
